31 compounds from patent US9440952B2, “Compounds inhibiting leucine-rich repeat kinase enzyme activity” (Merck Sharp & Dohme Corp., priority 2013, dated 2016) can be followed below.

In the test the target is T1, LRRK2(G2019S mutation, GST-LRRK2(amino acids 970-2527)) (Homo sapiens, UniProt Q5S007, G2019S).
T1 construct: GST-LRRK2(amino acids 970-2527); GST (N); purchased Life Technologies Corporation
Kind of test: LRRK2 Km ATP LanthaScreen Assay. The format is biochemical. An outline of the steps: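 IC50 values are means of several runs in the Km-ATP LanthaScreen format, analysed by curve fitting of the LanthaScreen read-out.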
(Time-resolved FRET reads energy transfer from a long-lived donor to a nearby acceptor.)

[1] abbreviates: Km ATP LanthaScreen Assay, LRRK2 G2019S, mean IC50 values, read-out: LRRK2 IC50.
The mark [2] stands for this setting: Km ATP LanthaScreen, mean IC50 of several tests, read-out: LRRK2 IC50.
The mark [3] stands for this setting: Km ATP LanthaScreen Assay; LRRK2 G2019S; mean IC50 values; Examples 185-215; read-out: LRRK2 IC5).

Where two headings read alike, the source gives them in different places. A value given as a limit tells only on which side of the number the result lay.

T1 sequence (Q5S007 970-2527 G2019S): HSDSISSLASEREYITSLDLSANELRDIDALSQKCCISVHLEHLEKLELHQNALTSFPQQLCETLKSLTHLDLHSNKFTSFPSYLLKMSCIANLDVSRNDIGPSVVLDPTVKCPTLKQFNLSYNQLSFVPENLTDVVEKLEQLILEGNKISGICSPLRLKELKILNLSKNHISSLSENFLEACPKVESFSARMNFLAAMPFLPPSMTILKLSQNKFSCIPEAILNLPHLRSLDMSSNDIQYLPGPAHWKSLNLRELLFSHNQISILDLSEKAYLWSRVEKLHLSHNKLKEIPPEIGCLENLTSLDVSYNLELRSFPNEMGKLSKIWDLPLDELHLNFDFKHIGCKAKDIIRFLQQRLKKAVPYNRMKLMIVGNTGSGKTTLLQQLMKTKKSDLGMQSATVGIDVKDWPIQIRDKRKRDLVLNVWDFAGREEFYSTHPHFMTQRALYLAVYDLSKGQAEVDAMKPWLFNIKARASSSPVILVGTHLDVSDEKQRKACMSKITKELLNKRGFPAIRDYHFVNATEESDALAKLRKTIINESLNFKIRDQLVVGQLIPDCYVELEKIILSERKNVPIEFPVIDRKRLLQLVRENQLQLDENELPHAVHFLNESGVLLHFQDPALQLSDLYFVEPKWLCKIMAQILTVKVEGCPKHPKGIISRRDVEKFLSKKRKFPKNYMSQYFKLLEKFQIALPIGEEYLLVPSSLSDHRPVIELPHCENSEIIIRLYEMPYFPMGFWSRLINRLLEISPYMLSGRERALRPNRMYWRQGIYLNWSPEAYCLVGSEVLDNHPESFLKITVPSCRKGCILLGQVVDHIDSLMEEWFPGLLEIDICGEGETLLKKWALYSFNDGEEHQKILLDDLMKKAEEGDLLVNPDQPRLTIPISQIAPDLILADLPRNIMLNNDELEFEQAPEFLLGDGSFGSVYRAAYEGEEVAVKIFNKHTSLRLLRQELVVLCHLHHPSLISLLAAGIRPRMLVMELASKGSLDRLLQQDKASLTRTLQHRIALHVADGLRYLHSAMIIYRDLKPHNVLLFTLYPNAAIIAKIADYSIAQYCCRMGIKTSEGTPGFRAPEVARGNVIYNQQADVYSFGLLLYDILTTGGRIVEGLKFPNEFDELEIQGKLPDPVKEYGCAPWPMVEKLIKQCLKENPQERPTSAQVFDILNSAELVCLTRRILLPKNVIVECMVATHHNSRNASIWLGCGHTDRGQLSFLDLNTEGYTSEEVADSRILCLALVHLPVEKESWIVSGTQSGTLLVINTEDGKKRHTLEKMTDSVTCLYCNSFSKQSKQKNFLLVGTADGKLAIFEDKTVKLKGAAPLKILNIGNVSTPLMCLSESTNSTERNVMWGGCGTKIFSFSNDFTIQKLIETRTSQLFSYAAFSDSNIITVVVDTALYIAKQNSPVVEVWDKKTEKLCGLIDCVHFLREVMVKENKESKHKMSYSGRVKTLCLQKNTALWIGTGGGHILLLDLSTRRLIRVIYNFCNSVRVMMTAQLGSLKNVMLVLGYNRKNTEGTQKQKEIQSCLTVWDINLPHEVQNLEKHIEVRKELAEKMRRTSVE

`Cc1nonc1CC(=O)Nc1cc(-c2n[nH]c3ccc(OC(C)C)cc23)ccn1` [Example 161]: the IC50 under setting [1] worked out at 32 nM.
With `Cc1cc(C(=O)Nc2cc(-c3n[nH]c4ccc(OC(C)C)cc34)ccn2)n(C)n1` [Example 141], under setting [1], the IC50 was 51.4 nM.
The same measure, in the same setting: under `CN1CCC(O)(CNc2cc(-c3n[nH]c4ccccc34)ccn2)CC1` [Example 47] stands 63 nM.
As to `CC(C)Oc1ccc2[nH]nc(-c3ccnc(NS(=O)(=O)c4ccc5c(c4)OCCO5)c3)c2c1` [Example 260], the IC50 under setting [2] is 52.3 nM.
Take `O=C(CN1CCN(c2cc(-c3n[nH]c4ccccc34)ccn2)CC1)N1CCOCC1` [Example 57]: the IC50 under setting [1] was found to be 6.1 nM.
In the case of `FC(F)n1cc(-c2ccc3[nH]nc(-c4ccnc(N5CCOCC5)c4)c3c2)cn1` [Example 396], the IC50 under setting [2] came out at 2.8 nM.
The same measure, in the same setting: the same measure for `Cn1cc(-c2ccc3[nH]nc(-c4ccnc(N5CCN(CCO)CC5)c4)c3c2)cn1` [Example 265]: 1.7 nM; for `CCOc1ccc2[nH]nc(-c3ccnc(N4CCN(C)CC4)c3)c2c1` [Example 362]: 10 nM.
As for `CC(C)Oc1ccc2[nH]nc(-c3ccnc(N4CC(F)(F)C4)c3)c2c1` [Example 213], under setting [3], the IC50 worked out at 16.7 nM.
`CC(C)Oc1ccc2[nH]nc(-c3ccnc(NC(=O)CC4COCCO4)c3)c2c1` (stereo not shown) [Example 168]: under setting [1], the IC50 was 33.4 nM.
`CC(C)Oc1ccc2[nH]nc(-c3ccnc(N4CCCC(c5ccncn5)C4)c3)c2c1` (stereo not shown) [Example 205]: under setting [3], the IC50 worked out at 6.4 nM.
Take `CCCOc1ccc2[nH]nc(-c3ccnc(N4CCOCC4)c3)c2c1` [Example 301]: the IC50 under setting [2] was found to be 12 nM.
With `c1ccc2c(-c3ccnc(NCCn4ccnc4)c3)n[nH]c2c1` [Example 64], under setting [1], the IC50 turned out to be 35 nM.
Same read-out and setting: the same measure for `FC(F)(F)Oc1ccc2[nH]nc(-c3ccnc(N4CC(n5cccn5)C4)c3)c2c1` [Example 241]: 315 nM.
As for `Fc1cnc(-c2ccc3[nH]nc(-c4ccnc(N5CCOCC5)c4)c3c2)nc1` [Example 337], the IC50 under setting [2] came to 42 nM.
On the same count and under the same terms, the same measure for `CCOc1ccc2[nH]nc(-c3ccnc(N4CCC(F)(F)CC4)c3)c2c1` [Example 288]: 22 nM.
`N#CC1(c2ccccc2)CCN(c2cc(-c3n[nH]c4ccccc34)ccn2)CC1` [Example 14]: the IC50 under setting [1] was 67 nM.
`Oc1ccc(-c2ccc3[nH]nc(-c4ccnc(N5CCOCC5)c4)c3c2)cn1` [Example 315]: the IC50 under setting [2] was 39 nM.
For the compound `N#CCCNCc1ccc2[nH]nc(-c3ccnc(N4CCOCC4)c3)c2c1` [Example 93], under setting [1], the IC50 came to 30 nM.
Turning to `[2H]C1([2H])OC([2H])([2H])C([2H])([2H])N(c2cc(-c3n[nH]c4ccc(OC(C)C)cc34)ccn2)C1([2H])[2H]` [Example 281], the IC50 under setting [1] was 1.4 nM.
Turning to `O=C1CCN(c2cc(-c3n[nH]c4ccccc34)ccn2)CC1` [Example 76], the IC50 under setting [2] amounted to 45 nM.
On to `CC(C)Oc1ccc2[nH]nc(-c3ccnc(N4CCN(S(C)(=O)=O)C(C)C4)c3)c2c1` (stereo not shown) [Example 385], for which the IC50 under setting [2] came to 2.2 nM.
As to `Cc1cnc(-c2ccc3[nH]nc(-c4ccnc(N5CCOCC5)c4)c3c2)nc1` [Example 338], under setting [2], the IC50 worked out at 8.9 nM.
Consider `COCCN(C)c1cc(-c2n[nH]c3ccc(OC(C)C)cc23)ccn1` [Example 136], for which the IC50 under setting [1] turned out to be 4.9 nM.
As to `COc1ccnc(Cl)c1-c1ccc2[nH]nc(-c3ccnc(N4CCOCC4)c3)c2c1` [Example 320], the IC50 under setting [2] was below 0.6 nM.
On the same count and under the same terms, under `c1cc(-c2n[nH]c3ccc(CNCC4CC4)cc23)cc(N2CCOCC2)n1` [Example 87] stands 424 nM.
For `Cc1nnc(CN(C)c2cc(-c3n[nH]c4ccc(OC(C)C)cc34)ccn2)o1` [Example 192], the IC50 under setting [3] was found to be 25.3 nM.
Take `CC(C)Oc1ccc2[nH]nc(-c3ccnc(N4CC(n5cnnc5)C4)c3)c2c1` [Example 180]: the IC50 under setting [1] was determined as 10.2 nM.
`OCc1cc2c(-c3ccnc(N4CCOCC4)c3)n[nH]c2cc1F` [Example 347]: the IC50 under setting [2] turned out to be 38 nM.
As to `COCCNc1cc(-c2n[nH]c3ccccc23)ccn1` [Example 4], the IC50 under setting [1] was 46 nM.
For `CN1CCN(c2cc(-c3n[nH]c4ccccc34)ccn2)CC1=O` [Example 46], the IC50 under setting [1] was found to be 21 nM.
